Experimental data: ChEMBL document CHEMBL3608248, “Dimeric Macrocyclic Antagonists of Inhibitor of Apoptosis Proteins for the Treatment of Cancer” (ACS Med Chem Lett, 2015)
pIC50: −log10 of the molar value. In brackets after ≈: the same amount, converted by molar mass. Activity calls are given as the source filed them. No cut-off for these calls is given here.

Experiments:
cells = details: Homo sapiens, A875, 72 h
in vivo [1] = details: Balb/C, mouse, iv, 1 mg/kg
in vivo [2] = details: Balb/C, mouse, iv, 1 mg/kg; remark: listed apart in the source
in vivo [3] = details: Balb/C, mouse, iv, 1 mg/kg; remark: listed apart in the source
in vivo [4] = details: Balb/C, mouse, iv, 1 mg/kg; remark: listed apart in the source
Mus musculus = species: Mus musculus; details: in vivo, iv, 1 mg/kg, 7 h
physchem = details: buffer, pH 7.4
A875 = details: Homo sapiens, 50 mg/kg
HCT-116 = assay: cells; details: Homo sapiens
HCT-116/VM46 = assay: cells; details: Homo sapiens
in vivo [5] = details: rat, iv, 1 mg/kg
in vivo [6] = details: rat, iv, 1 mg/kg; remark: listed apart in the source
in vivo [7] = details: rat, iv, 1 mg/kg; remark: listed apart in the source
in vivo [8] = details: dog, iv, 0.3 mg/kg
in vivo [9] = details: dog, iv, 0.3 mg/kg; remark: listed apart in the source
in vivo [10] = details: dog, iv, 0.3 mg/kg; remark: listed apart in the source
in vitro [11] = details: rat, liver microsomes
in vitro [12] = details: mouse, liver microsomes
in vitro [13] = details: dog, liver microsomes
in vitro [14] = details: human, liver microsomes
hERG = hERG (Homo sapiens, UniProt Q12809); assay: in vitro
Sequence of hERG (Q12809 whole entry): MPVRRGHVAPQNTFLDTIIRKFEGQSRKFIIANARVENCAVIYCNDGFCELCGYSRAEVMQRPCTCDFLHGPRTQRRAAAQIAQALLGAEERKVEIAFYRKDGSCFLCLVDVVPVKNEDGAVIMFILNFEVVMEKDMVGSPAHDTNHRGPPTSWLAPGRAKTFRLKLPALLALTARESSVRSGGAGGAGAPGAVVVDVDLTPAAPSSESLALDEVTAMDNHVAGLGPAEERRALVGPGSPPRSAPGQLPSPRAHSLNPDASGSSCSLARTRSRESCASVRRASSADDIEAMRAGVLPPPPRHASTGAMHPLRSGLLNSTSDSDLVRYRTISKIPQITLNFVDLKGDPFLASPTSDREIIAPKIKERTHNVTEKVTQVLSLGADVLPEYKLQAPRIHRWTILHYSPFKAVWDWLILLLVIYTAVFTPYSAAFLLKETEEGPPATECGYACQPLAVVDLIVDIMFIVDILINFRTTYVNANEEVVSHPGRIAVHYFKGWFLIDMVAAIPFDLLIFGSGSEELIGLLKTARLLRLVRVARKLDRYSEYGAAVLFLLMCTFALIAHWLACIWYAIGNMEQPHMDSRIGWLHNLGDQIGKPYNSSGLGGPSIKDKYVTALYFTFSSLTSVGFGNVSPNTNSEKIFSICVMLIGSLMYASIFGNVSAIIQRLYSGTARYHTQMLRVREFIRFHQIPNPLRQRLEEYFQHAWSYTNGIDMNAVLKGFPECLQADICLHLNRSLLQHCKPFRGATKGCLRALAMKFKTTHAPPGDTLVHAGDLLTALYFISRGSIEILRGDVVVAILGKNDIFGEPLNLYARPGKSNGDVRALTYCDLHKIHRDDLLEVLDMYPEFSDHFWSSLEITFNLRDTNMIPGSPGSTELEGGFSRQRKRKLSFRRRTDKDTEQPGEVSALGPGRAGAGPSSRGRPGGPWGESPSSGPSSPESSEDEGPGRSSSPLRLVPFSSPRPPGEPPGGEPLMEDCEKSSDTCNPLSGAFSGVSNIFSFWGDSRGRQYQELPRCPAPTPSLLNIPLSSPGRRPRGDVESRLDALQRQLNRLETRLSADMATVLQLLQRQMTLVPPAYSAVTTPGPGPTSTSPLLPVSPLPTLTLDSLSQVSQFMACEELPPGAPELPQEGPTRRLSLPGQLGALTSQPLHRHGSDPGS

in vitro [15] = details: mouse, plasma
in vitro [16] = details: rat, plasma
in vitro [17] = details: dog, plasma
in vitro [18] = details: human, plasma
animal or person [19] = details: Homo sapiens, A875, ip, 72 h, read-out: TGI
animal or person [20] = details: Homo sapiens, A875, ip, 72 h, read-out: TGI; remark: listed apart in the source
animal or person [21] = details: Homo sapiens, A875, ip, read-out: TGI

SMILES: CN[C@@H](C)C(=O)N[C@H](C(=O)N1C[C@@H]2C[C@H]1C(=O)N[C@@H](Cc1ccc3ccccc3c1)C(=O)N[C@H](C(=O)OC)Cc1ccc(cc1)OCc1cn(nn1)[C@H]1C[C@@H](C(=O)N[C@@H](Cc3ccc4ccccc4c3)C(=O)N[C@H](C(=O)OC)Cc3ccc(cc3)OCc3cn2nn3)N(C(=O)[C@@H](NC(=O)[C@H](C)NC)C(C)(C)C)C1)C(C)(C)C
- pIC50 (cells): 6.16

SMILES: CN[C@@H](C)C(=O)N[C@H](C(=O)N1C[C@@H]2C[C@H]1C(=O)N[C@@H](Cc1ccc3ccccc3c1)C(=O)N[C@H](NS(=O)(=O)C1CC1)Cc1ccc(cc1)OCc1cn(nn1)[C@H]1C[C@@H](C(=O)N[C@@H](Cc3ccc4ccccc4c3)C(=O)N[C@H](C(=O)O)Cc3ccc(cc3)OCc3cn2nn3)N(C(=O)[C@@H](NC(=O)[C@H](C)NC)C(C)(C)C)C1)C(C)(C)C
- pIC50 (cells): 7.41
- half-life (in vivo [1]): 1 h
- clearance (in vivo [2]): 1.5 mL/min/kg
- Vd (in vivo [3]): 0.1 L/kg
- AUC(0-t) at 7 h (in vivo [4]): 5.85 µM·h

SMILES: C=CCOc1ccc(C[C@H](NC(=O)[C@H](Cc2ccc3ccccc3c2)NC(=O)[C@@H]2C[C@H](n3cc(COc4ccc(C[C@H](NC(=O)[C@H](Cc5ccc6ccccc6c5)NC(=O)[C@@H]5C[C@H](CC=C)CN5C(=O)[C@@H](NC(=O)[C@H](C)NC)C(C)(C)C)NS(=O)(=O)C5CC5)cc4)nn3)CN2C(=O)[C@@H](NC(=O)[C@H](C)NC)C(C)(C)C)C(=O)O)cc1
- pIC50 (cells): < 6.00

SMILES: CN[C@@H](C)C(=O)N[C@H](C(=O)N1C[C@@H]2C[C@H]1C(=O)N[C@@H](Cc1ccc3ccccc3c1)C(=O)N[C@H](C(=O)O)Cc1ccc(cc1)OCc1cn(nn1)[C@H]1C[C@@H](C(=O)N[C@@H](Cc3ccc4ccccc4c3)C(=O)N[C@H](C(=O)OC)Cc3ccc(cc3)OCc3cn2nn3)N(C(=O)[C@@H](NC(=O)[C@H](C)NC)C(C)(C)C)C1)C(C)(C)C
- pIC50 (cells): 6.51

SMILES: CN[C@@H](C)C(=O)N[C@H](C(=O)N1C[C@@H]2C[C@H]1C(=O)N[C@@H](Cc1ccc3ccccc3c1)C(=O)N[C@H](C(=O)O)Cc1ccc(cc1)OCc1cn(nn1)[C@H]1C[C@@H](C(=O)N[C@@H](Cc3ccc4ccccc4c3)C(=O)N[C@H](c3nnn[nH]3)Cc3ccc(cc3)OCc3cn2nn3)N(C(=O)[C@@H](NC(=O)[C@H](C)NC)C(C)(C)C)C1)C(C)(C)C
- pIC50 (cells): 7.08

SMILES: CN[C@@H](C)C(=O)N[C@H](C(=O)N1C[C@@H]2C[C@H]1C(=O)N[C@@H](Cc1ccc3ccccc3c1)C(=O)N[C@H](C(=O)O)Cc1ccc(cc1)OCc1cn(nn1)[C@H]1C[C@@H](C(=O)N[C@@H](Cc3ccc4ccccc4c3)C(=O)N[C@H](C(=O)O)Cc3ccc(cc3)OCc3cn2nn3)N(C(=O)[C@@H](NC(=O)[C@H](C)NC)C(C)(C)C)C1)C(C)(C)C
- AUC (Mus musculus): 1.55 µM·h
- pIC50 (cells): 7.14
- Vd (in vivo [3]): 0.3 L/kg
- solubility (physchem): 130 µg/mL (≈ 86.3 µM)

SMILES: CN[C@@H](C)C(=O)N[C@H](C(=O)N1C[C@H]2CCCCOc3ccc(cc3)C[C@@H](C(=O)O)NC(=O)[C@H](Cc3ccc4ccccc4c3)NC(=O)[C@@H]3C[C@@H](CN3C(=O)[C@@H](NC(=O)[C@H](C)NC)C(C)(C)C)n3cc(nn3)COc3ccc(cc3)C[C@@H](NS(=O)(=O)C3CC3)NC(=O)[C@H](Cc3ccc4ccccc4c3)NC(=O)[C@@H]1C2)C(C)(C)C
- TGI (A875): Active
- pIC50 (cells): 7.72
- pIC50 (HCT-116): 7.04
- pIC50 (HCT-116/VM46): 7.96
- half-life (in vivo [1]): 1.7 h
- clearance (in vivo [2]): 2.1 mL/min/kg
- AUC(0-t) at 7 h (in vivo [4]): 4.49 µM·h
- half-life (in vivo [5]): 1 h
- clearance (in vivo [6]): 6.2 mL/min/kg
- AUC(0-t) at 7 h (in vivo [7]): 1.71 µM·h
- half-life (in vivo [8]): 4.7 h
- clearance (in vivo [9]): 0.4 mL/min/kg
- AUC(0-t) at 7 h (in vivo [10]): 8.43 µM·h
- solubility (physchem): 50 µg/mL (≈ 32.1 µM)
- half-life (in vitro [11]): 1.4 h
- half-life (in vitro [12]): > 2 h
- half-life (in vitro [13]): > 2 h
- half-life (in vitro [14]): > 2 h
- inhibition at 30 um (hERG): 9%
- fraction unbound (in vitro [15]): 0.058
- fraction unbound (in vitro [16]): 0.019
- fraction unbound (in vitro [17]): 0.024
- fraction unbound (in vitro [18]): 0.075
- inhibition in vivo at 2 mg/kg (animal or person [19]): 67%
- inhibition in vivo at 5 mg/kg (animal or person [20]): > 100%
- inhibition in vivo at 5 mg/kg (animal or person [21]): 80%

SMILES: CN[C@@H](C)C(=O)N[C@H](C(=O)N1C[C@@H]2C[C@H]1C(=O)N[C@@H](Cc1ccc3ccccc3c1)C(=O)N[C@H](NS(=O)(=O)C1CC1)Cc1ccc(cc1)OCc1cn(nn1)[C@H]1C[C@@H](C(=O)N[C@@H](Cc3ccc4ccccc4c3)C(=O)N[C@H](NS(=O)(=O)C3CC3)Cc3ccc(cc3)OCc3cn2nn3)N(C(=O)[C@@H](NC(=O)[C@H](C)NC)C(C)(C)C)C1)C(C)(C)C
- pIC50 (cells): 7.10
- half-life (in vivo [1]): 0.9 h
- clearance (in vivo [2]): 3.6 mL/min/kg
- Vd (in vivo [3]): 0.3 L/kg
- AUC(0-t) at 7 h (in vivo [4]): 2.35 µM·h

SMILES: CN[C@@H](C)C(=O)N[C@H](C(=O)N1C[C@H]2CCCCOc3ccc(cc3)C[C@@H](C(=O)NS(=O)(=O)C3CC3)NC(=O)[C@H](Cc3ccc4ccccc4c3)NC(=O)[C@@H]3C[C@H](CCCCOc4ccc(cc4)C[C@@H](C(=O)O)NC(=O)[C@H](Cc4ccc5ccccc5c4)NC(=O)[C@@H]1C2)CN3C(=O)[C@@H](NC(=O)[C@H](C)NC)C(C)(C)C)C(C)(C)C
- pIC50 (cells): 7.82
- solubility (physchem): < 10 µg/mL

SMILES: CN[C@@H](C)C(=O)N[C@H](C(=O)N1C[C@H]2C/C=C/COc3ccc(cc3)C[C@@H](C(=O)NS(=O)(=O)C3CC3)NC(=O)[C@H](Cc3ccc4ccccc4c3)NC(=O)[C@@H]3C[C@H](C/C=C/COc4ccc(cc4)C[C@@H](C(=O)O)NC(=O)[C@H](Cc4ccc5ccccc5c4)NC(=O)[C@@H]1C2)CN3C(=O)[C@@H](NC(=O)[C@H](C)NC)C(C)(C)C)C(C)(C)C
- pIC50 (cells): 7.64

SMILES: CN[C@@H](C)C(=O)N[C@H](C(=O)N1C[C@H]2C/C=C/COc3ccc(cc3)C[C@@H](C(=O)O)NC(=O)[C@H](Cc3ccc4ccccc4c3)NC(=O)[C@@H]3C[C@@H](CN3C(=O)[C@@H](NC(=O)[C@H](C)NC)C(C)(C)C)n3cc(nn3)COc3ccc(cc3)C[C@@H](NS(=O)(=O)C3CC3)NC(=O)[C@H](Cc3ccc4ccccc4c3)NC(=O)[C@@H]1C2)C(C)(C)C
- pIC50 (cells): 7.29
